Reference: US20100160228A1, “METHOD FOR INHIBITING OR STIMULATING ANGIOGENESIS IN AN INDIVIDUAL” (VALTION TEKNILLINEN TUTKIMUSKESKUS, priority 2007, published 2010)

Tests used:
Assay type in all cases: cell-based, human
[1] = test system: HUVEC; assay: Transwell chemotaxis assay towards VEGF; settings: vector-transfected HUVEC, FIG. 3D
Experimental: FIG. 3. TCPTP activity controls VEGF-dependent responses in endothelial cells. (A) HUVEC were transfected with the constitutively active TCPTP (TC37) or vector control (pCG), stimulated or not with VEGF, and stained for VEGFR2 (red) and nuclei (blue) after fixation and permeabilization. Arrows indicate VEGFR2 vesicles. (B) HUVEC were treated as in (A) and subjected to trypsin digestion on ice. VEGFR2 protected from trypsin (=internalized pool) was detected by immunoblotting. The intensities of VEGFR2 bands were quantified and are expressed relative to pCG-VEGF control. A representative experiment out of 2 with similar results is shown. (C) HUVEC were transfected with no oligo, siRNA against TCPTP or a control siRNA, and TCPTP expression was measured using immunoblotting. Cells were treated with 80 ng/ml VEGF and proliferation of sparse cells plated on gelatin was assayed after 16 h using BrdU-based assay (mean±SD; n=4-6; *, p<0.05). (D) HUVEC were transfected as in (A) and chemotaxis towards VEGF was measured using a Transwell assay for 4 hours. Cells adhering to the bottom of the filter were fixed and stained with crystal violet. Number of migrated cells was counted (mean±SEM, n=3).
(§1) FIG. 5. Controlled TCPTP activation inhibits VEGF-driven capillary formation, chemokinesis and chemotaxis. (A) HUVEC were cultured in fibrin gels and treated with or without VEGF and TAT peptides (200 nM). After 24 h the formation of capillary tubes was semiquantitatively scored. (B) HUVEC were plated on gelatin in the presence of the peptides (200 nM) or left untreated for 1 h. The cells were stimulated as indicated and migration of individual cells was tracked using time-lapse microscopy. Cumulative migration distance was plotted for randomly picked individual cells. (C) HUVEC were treated with 200 nM peptides and the transmigration assay was performed as in FIG. 3D. (D) HUVEC were transfected with siRNA against TCPTP or a control siRNA, and TCPTP expression was analysed with immunofluorescence. Equal exposures of TCPTP (green) and DAPI (blue) stainings are shown. 48 h post-transfection cells were subjected to transmigration assay as in […].
Chemotaxis assays. HUVEC electroporated with the DNA or siRNA or non-transfected HUVEC were treated with 200 nM α1TAT, ScrTAT or left untreated for 1 h. Transwell filters (8 μm pore size, Costar, Cambridge, Mass.) were coated with gelatin and medium (RPMI, 4 mM L-glutamine, 10% FBS) and VEGF (100 ng/ml) were added to the lower chamber. Cells were harvested from the culture plates, and transferred into the Transwell inserts (4×10^5 cells/well) in RPMI with 0.2% soybean trypsin inhibitor. […] The inserts were fixed in 4% paraformaldehyde, cells stained with 0.5% crystal violet and the number of migrated cells was counted using a microscope.

[2] = test system: VEGFR2; assay: VEGFR2 kinase activity from HUVEC lysates (Kinase-Glo Plus); settings: HUVEC treated with no peptide or with scrambled control TAT peptide, FIG. 4B
Experimental: (A) Serum-starved subconfluent HUVEC were treated for 1 h with α1 integrin cytoplasmic tail fusion peptide (α1TAT) or TAT-scramble control fusion peptide (ScrTAT) (both at 200 nM) followed by VEGF-induction (100 ng/ml, 15 min) where indicated. Cell lysates were resolved on SDS-PAGE and immunoblotted for phosphorylated VEGFR2 (or tubulin as a control). (B) HUVEC were treated as in (A) and VEGFR2 kinase activity (mean±SD, n=3) was measured from the cell lysates. **, p<0.01. (C) Recombinant, purified TCPTP was incubated with α1 or α2 cytoplasmic tail peptides (L-amino acids) or with α1 and scrambled TAT peptides (D-amino acids) and analyzed for phosphatase activity (mean±SD, n=3).
VEGFR2 kinase activity was studied using Kinase-Glo Plus kinase assay kit according to manufacturer's protocol (Promega) with 25 µM ATP. Briefly, HUVEC plated on gelatin were serum-starved overnight, treated with 400 nM α1TAT or ScrTAT or left untreated and stimulated with 100 ng/ml VEGF for 15 min, when indicated. The cells were lysed to ice-cold lysis buffer (1% NP-40, 20 mM Hepes pH 7.4, 150 mM NaCl, 10% glycerol, 2.5 mM EDTA, complete protease inhibitor (Roche) and phosphatase inhibitor coctails I and II (Sigma)). The lysates were incubated in anti-VEGFR2 or control IgG-coated wells with shaking for 2 h and washed 3 times with lysis buffer and 3 times with cold kinase assay buffer (20 mM Hepes pH 8, 0.1 mM Na3VO4, 10 mM MnCl2, 1 mM DTT). Kinase assay was performed for 10 min at +37° C.

[3] = test system: HUVEC; assay: Time-lapse chemokinesis assay; settings: HUVEC on gelatin, 4 hours time-lapse, FIG. 5B and FIG. 9
Experimental: as §1
FIG. 9. TCPTP activation by α1-peptide inhibits VEGF induced chemokinesis. HUVEC were plated on gelatin in the presence of the peptides (200 nM) or left untreated for 1 h. The cells were stimulated as indicated and migration of individual cells was tracked using time-lapse microscopy. Representative images of individual cells overlayed with their migration patterns (different colours) at the indicated time points are shown.
Time-lapse chemokinesis assays. HUVEC were plated on gelatin-coated wells and allowed to attach for 1 h in the presence or absence of 200 nM α1TAT or ScrTAT and 20 ng/ml VEGF. Migration of individual cells was recorded at 5 min intervals for 4 h using 20× objective and digital video recording. The migration pathway of at least ten randomly picked cells was tracked using the Metamorph program. The cumulative migration distances were also plotted.

VEGF
stimulation of chemotaxis [1]: > 2 fold
increase of VEGFR2 kinase activity upon VEGF-stimulation [2]: about 10 fold
induction of HUVEC chemokinesis [3]: 99±25%
